Results reported in US9708334B2, “Substituted 2,4,5,6-tetrahydropyrrolo[3,4-c]pyrazole and 4,5,6,7-tetrahydro-2H-pyrazolo[4,3-c]pyridine compounds as GlyT1 inhibitors” (DART NEUROSCIENCE (CAYMAN) LTD., priority 2014, dated 2017).
Blank lines part the entries; values can stand above or below the compound they belong to.

Molecular target: T1, GlyT1 (Homo sapiens, UniProt P48067)
T1 construct: expressed in transfected cells
T1 sequence (P48067 1-706): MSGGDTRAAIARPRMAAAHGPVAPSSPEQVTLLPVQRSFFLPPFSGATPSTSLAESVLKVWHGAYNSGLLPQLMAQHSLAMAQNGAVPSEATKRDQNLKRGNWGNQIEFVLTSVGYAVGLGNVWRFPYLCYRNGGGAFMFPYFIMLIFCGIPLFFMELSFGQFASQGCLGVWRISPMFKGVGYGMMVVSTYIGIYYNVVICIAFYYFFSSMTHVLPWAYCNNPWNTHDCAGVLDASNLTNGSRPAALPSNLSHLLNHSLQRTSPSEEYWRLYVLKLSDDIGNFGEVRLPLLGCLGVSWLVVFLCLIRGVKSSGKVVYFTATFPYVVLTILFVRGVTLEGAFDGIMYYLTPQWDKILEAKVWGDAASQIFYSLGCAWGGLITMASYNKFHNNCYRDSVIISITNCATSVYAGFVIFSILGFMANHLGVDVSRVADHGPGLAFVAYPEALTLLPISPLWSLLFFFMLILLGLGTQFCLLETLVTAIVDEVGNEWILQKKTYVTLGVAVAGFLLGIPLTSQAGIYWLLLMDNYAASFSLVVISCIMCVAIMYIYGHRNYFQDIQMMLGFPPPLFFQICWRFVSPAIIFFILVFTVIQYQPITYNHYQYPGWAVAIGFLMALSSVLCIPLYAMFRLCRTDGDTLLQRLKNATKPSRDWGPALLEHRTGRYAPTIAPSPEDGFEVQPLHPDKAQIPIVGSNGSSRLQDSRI
Test: Glycine Transporter 1 (GlyT1) uptake assay, scintillation proximity assay of [14C]-glycine uptake
Type: cell-based
Details: SPA, four parameter logistic fit, read-out: GlyT1 (pIC50) (converted)
In short: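 [14C]-glycine uptake read by scintillation proximity on a plate counter. IC50 from four-parameter logistic fit of dose-response data.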

Compound: Cc1cncc(-c2ccc(S(C)(=O)=O)cc2C(=O)N2Cc3cn(-c4ccc(F)cn4)nc3C2)c1 [Example 549, 5-Fluoro-2-{5-[5-methanesulfonyl-2-(5-methylpyridin-3-yl)benzoyl]-2H 4H 5H 6H-pyrrolo[3,4-c]pyrazol-2-yl}pyridine]
- IC50: < 100 nM

Compound: N#Cc1ccc(-c2ccccc2F)c(C(=O)N2Cc3cn(-c4cncc(F)c4)nc3C2)c1 [Example 550, 4-(2-Fluorophenyl)-3-[2-(5-fluoropyridin-3-yl)-2H 4H 5H 6H-pyrrolo[3,4-c]pyrazole-5-carbonyl]benzonitrile]
- IC50: 1000 to 10000 nM

Compound: N#Cc1ccc(-c2cncc(F)c2)c(C(=O)N2Cc3cn(-c4cncc(F)c4)nc3C2)c1 [Example 552, 4-(5-Fluoropyridin-3-yl)-3-[2-(5-fluoropyridin-3-yl)-2H 4H 5H 6H-pyrrolo[3,4-c]pyrazole-5-carbonyl]benzonitrile]
- IC50: 100 to 1000 nM

Compound: N#Cc1ccc(-c2cccnc2)c(C(=O)N2Cc3cn(-c4cncc(F)c4)nc3C2)c1 [Example 553]
- IC50: 100 to 1000 nM

Compound: Cc1cc(-n2cc3c(n2)CN(C(=O)c2cc(C#N)ccc2-c2ccccc2F)C3)ccn1 [Example 554, 4-(2-Fluorophenyl)-3-[2-(2-methylpyridin-4-yl)-2H 4H 5H 6H-pyrrolo[3,4-c]pyrazole-5-carbonyl]benzonitrile]
- IC50: 1000 to 10000 nM

Compound: CS(=O)(=O)c1ccc(-c2cccnc2)c(C(=O)N2Cc3cn(-c4ccccc4F)nc3C2)c1 [Example 555, (2-(2-Fluorophenyl)pyrrolo[3,4-c]pyrazol-5(2H,4H,6H)-yl)(5-(methylsulfonyl)-2-(pyridin-3-yl)phenyl)methanone]
- IC50: 100 to 1000 nM

Compound: Cc1cc(-n2cc3c(n2)CN(C(=O)c2cc(C#N)ccc2-c2cncc(F)c2)C3)ccn1 [Example 556, 4-(5-Fluoropyridin-3-yl)-3-[2-(2-methylpyridin-4-yl)-2H 4H 5H 6H-pyrrolo[3,4-c]pyrazole-5-carbonyl]benzonitrile]
- IC50: < 100 nM

Compound: N#Cc1ccc(-c2cccc(F)c2)c(C(=O)N2Cc3cn(C4CCOCC4)nc3C2)c1 [Example 557, 4-(3-Fluorophenyl)-3-[2-(oxan-4-yl)-2H 4H 5H 6H-pyrrolo[3,4-c]pyrazole-5-carbonyl]benzonitrile]
- IC50: 100 to 1000 nM

Compound: Cc1cccc(-c2ccc(C#N)cc2C(=O)N2Cc3cn(C4CCOCC4)nc3C2)c1 [Example 558, 4-(3-Methylphenyl)-3-[2-(oxan-4-yl)-2H 4H 5H 6H-pyrrolo[3,4-c]pyrazole-5-carbonyl]benzonitrile]
- IC50: > 10000 nM

Compound: CS(=O)(=O)c1ccc(-c2ccccc2F)c(C(=O)N2Cc3cn(-c4ccccc4F)nc3C2)c1 [Example 559, 2-(2-Fluorophenyl)-5-[2-(2-fluorophenyl)-5-methanesulfonylbenzoyl]-2H 4H 5H 6H-pyrrolo[3,4-c]pyrazole]
- IC50: < 100 nM

Compound: CS(=O)(=O)c1ccc(-c2cccc(F)c2)c(C(=O)N2Cc3cn(-c4ccccc4F)nc3C2)c1 [Example 560, 2-(2-Fluorophenyl)-5-[2-(3-fluorophenyl)-5-methanesulfonylbenzoyl]-2H 4H 5H 6H-pyrrolo[3,4-c]pyrazole]
- IC50: < 100 nM

Compound: CS(=O)(=O)c1ccc(-c2cncc(F)c2)c(C(=O)N2Cc3cn(-c4ccccc4F)nc3C2)c1 [Example 561, 3-Fluoro-5-{2-[2-(2-fluorophenyl)-2H 4H 5H 6H-pyrrolo[3,4-c]pyrazole-5-carbonyl]-4-methanesulfonylphenyl}pyridine]
- IC50: < 100 nM

Compound: Cc1cc(-n2cc3c(n2)CN(C(=O)c2cc(C#N)ccc2-c2cc(F)cc(F)c2)C3)ccn1 [Example 562, 4-(3 5-Difluorophenyl)-3-[2-(2-methylpyridin-4-yl)-2H 4H 5H 6H-pyrrolo[3,4-c]pyrazole-5-carbonyl]benzonitrile]
- IC50: 100 to 1000 nM

Compound: CS(=O)(=O)c1ccc(-c2cc(F)cc(F)c2)c(C(=O)N2Cc3cn(-c4cncc(F)c4)nc3C2)c1 [Example 563, 3-{5-[2-(3 5-Difluorophenyl)-5-methanesulfonylbenzoyl]-2H 4H 5H 6H-pyrrolo[3,4-c]pyrazol-2-yl}-5-fluoropyridine]
- IC50: < 100 nM

Compound: Cc1cccc(-c2ccc(C#N)cc2C(=O)N2Cc3cn(-c4ccnc(C)c4)nc3C2)c1 [Example 564, 4-(3-Methylphenyl)-3-[2-(2-methylpyridin-4-yl)-2H 4H 5H 6H-pyrrolo[3,4-c]pyrazole-5-carbonyl]benzonitrile]
- IC50: 1000 to 10000 nM

Compound: Cc1cc(-n2cc3c(n2)CN(C(=O)c2cc(C#N)ccc2-c2cccc(C(F)(F)F)c2)C3)ccn1 [Example 565, 3-[2-(2-Methylpyridin-4-yl)-2H 4H 5H 6H-pyrrolo[3,4-c]pyrazole-5-carbonyl]-4-[3-(trifluoromethyl)phenyl]benzonitrile]
- IC50: 1000 to 10000 nM

Compound: CS(=O)(=O)c1ccc(-c2ccccc2)c(C(=O)N2Cc3cn(-c4ccc(F)cn4)nc3C2)c1 [Example 566, 5-Fluoro-2-[5-(5-methanesulfonyl-2-phenylbenzoyl)-2H 4H 5H 6H-pyrrolo[3,4-c]pyrazol-2-yl]pyridine]
- IC50: < 100 nM

Compound: CCS(=O)(=O)c1ccc(-c2ccccc2)c(C(=O)N2Cc3cn(-c4ccnc(C)c4)nc3C2)c1 [Example 567, 4-{5-[5-(Ethanesulfonyl)-2-phenylbenzoyl]-2H 4H 5H 6H-pyrrolo[3,4-c]pyrazol-2-yl}-2-methylpyridine]
- IC50: < 100 nM

Other lines, results leading:

- IC50: < 100 nM
Compound: CCS(=O)(=O)c1ccc(-c2cccc(F)c2)c(C(=O)N2Cc3cn(-c4ccnc(C)c4)nc3C2)c1 [Example 568]

- IC50: < 100 nM
Compound: CCS(=O)(=O)c1ccc(-c2cc(F)cc(F)c2)c(C(=O)N2Cc3cn(-c4ccnc(C)c4)nc3C2)c1 [Example 569, 4-{5-[2-(3 5-Difluorophenyl)-5-(ethanesulfonyl)benzoyl]-2H 4H 5H 6H-pyrrolo[3,4-c]pyrazol-2-yl}-2-methylpyridine]

- IC50: < 100 nM
Compound: CCS(=O)(=O)c1ccc(-c2ccccc2)c(C(=O)N2Cc3cn(-c4cncc(F)c4)nc3C2)c1 [Example 570, 3-{5[5-(Ethanesulfonyl)-2-phenylbenzoyl]-2H 4H 5H 6H-pyrrolo[3,4-c]pyrazol-2-yl}-5-fluoropyridine]

- IC50: < 100 nM
Compound: CCS(=O)(=O)c1ccc(-c2cccc(F)c2)c(C(=O)N2Cc3cn(-c4cncc(F)c4)nc3C2)c1 [Example 571]

- IC50: 100 to 1000 nM
Compound: CCS(=O)(=O)c1ccc(-c2cc(F)cc(F)c2)c(C(=O)N2Cc3cn(-c4cncc(F)c4)nc3C2)c1 [Example 572, 3-{5-[2-(3 5-Difluorophenyl)-5-(ethanesulfonyl)benzoyl]-2H 4H 5H 6H-pyrrolo[3,4-c]pyrazol-2-yl}-5-fluoropyridine]

- IC50: 1000 to 10000 nM
Compound: CC(Oc1ccc(S(C)(=O)=O)cc1C(=O)N1CCc2n[nH]c(-c3ccccc3)c2C1)C(F)(F)F (stereo not shown) [Example 573, 5-{5-Methanesulfonyl-2-[(1 1 1-trifluoropropan-2-yl)oxy]benzoyl}-3-phenyl-2H 4H 5H 6H 7H-pyrazolo[4,3-c]pyridine]

- IC50: < 100 nM
Compound: CC(C)COc1ccc(S(C)(=O)=O)cc1C(=O)N1Cc2cn(-c3ccc(F)cc3)nc2C1 [Example 574, 2-(4-Fluorophenyl)-5-[5-methanesulfonyl-2-(2-methylpropoxy)benzoyl]-2H 4H 5H 6H-pyrrolo[3,4-c]pyrazole]

- IC50: < 100 nM
Compound: COc1c(C#N)ccc(OC(C)C(F)(F)F)c1C(=O)N1CCc2c(cnn2-c2ccc(F)cc2F)C1 (stereo not shown) [Example 575, 3-[1-(2 4-Difluorophenyl)-1H 4H 5H 6H 7H-pyrazolo[4,3-c]pyridine-5-carbonyl]-2-methoxy-4-[(1 1 1-trifluoropropan-2-yl)oxy]benzonitrile]

- IC50: < 100 nM
Compound: COc1c(C#N)ccc(OC(C)C(F)(F)F)c1C(=O)N1CCc2nn(-c3ccc(F)cc3)c(C(F)(F)F)c2C1 (stereo not shown) [Example 576, 3-[2-(4-Fluorophenyl)-3-(trifluoromethyl)-2H 4H 5H 6H 7H-pyrazolo[4,3-c]pyridine-5-carbonyl]-2-methoxy-4-[(1 1 1-trifluoropropan-2-yl)oxy]benzonitrile]

- IC50: 100 to 1000 nM
Compound: COc1c(C#N)ccc(OC(C)C(F)(F)F)c1C(=O)N1CCc2c(c(C(F)(F)F)nn2-c2ccc(F)cc2)C1 (stereo not shown) [Example 577, 3-[1-(4-Fluorophenyl)-3-(trifluoromethyl)-1H 4H 5H 6H 7H-pyrazolo[4,3-c]pyridine-5-carbonyl]-2-methoxy-4-[(1 1 1-trifluoropropan-2-yl)oxy]benzonitrile]
